Measured values published in US20100022531A1, “NOVEL COMPOUNDS AS P2X7 MODULATORS AND USES THEREOF” (RENOVIS, INC., priority 2005, published 2010).
Read-outs that look alike come from different tables or passages of the source.

Biological target: T1, P2X7 receptor (Homo sapiens, UniProt Q99572)
T1 construct: host or cells: THP-1 cells differentiated with LPS and IFN-γ
T1 sequence (Q99572 1-595): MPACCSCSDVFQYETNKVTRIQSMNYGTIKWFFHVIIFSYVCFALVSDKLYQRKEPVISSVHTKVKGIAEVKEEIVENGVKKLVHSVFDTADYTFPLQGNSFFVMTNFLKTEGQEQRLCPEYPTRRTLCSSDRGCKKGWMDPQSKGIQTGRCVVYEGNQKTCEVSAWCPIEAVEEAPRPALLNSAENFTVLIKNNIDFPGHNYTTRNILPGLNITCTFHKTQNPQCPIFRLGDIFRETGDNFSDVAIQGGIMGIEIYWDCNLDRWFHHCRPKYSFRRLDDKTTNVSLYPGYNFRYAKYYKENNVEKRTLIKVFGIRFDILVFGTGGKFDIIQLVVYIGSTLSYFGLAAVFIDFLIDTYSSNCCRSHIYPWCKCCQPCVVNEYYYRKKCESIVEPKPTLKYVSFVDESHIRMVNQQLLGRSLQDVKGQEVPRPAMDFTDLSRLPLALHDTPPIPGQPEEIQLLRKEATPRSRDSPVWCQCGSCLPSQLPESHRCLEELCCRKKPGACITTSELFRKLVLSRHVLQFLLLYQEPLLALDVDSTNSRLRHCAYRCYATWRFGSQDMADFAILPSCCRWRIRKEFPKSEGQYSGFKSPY
Experiment: Alternate method for IL-1β release assay (differentiated THP-1 cells, BzATP-stimulated, ELISA)
Assay type: cell-based
Conditions: P2X7; for inhibition at 0.1 µM: read-out: IL-1β % inhib @ 0.1 μM; for inhibition at 0.3 µM: read-out: IL-1β % inhib @ 0.3 μM
Method: Alternate Method for IL-1β Release Assay
THP-1 cells (ATCC Cat #285-IF-100) are plated in 96 well plates at a concentration of 200,000 cells per well and allowed to differentiate in RPMI-1640 media (ATCC Cat #30-2001) containing 10% FBS, 100 IU/mL penicillin, 100 ug/mL streptomycin, 100 ng/mL LPS and 100 ng/mL IFN-γ for 16 hours. Following differentiation, the cells are treated for an additional 2 hours in RPMI-1640 media containing 100 IU/mL penicillin, 100 ug/mL streptomycin and fresh LPS at 100 ng/mL. The cells are then pretreated for 30 minutes with the compound of interest at the appropriate concentration in RPMI media containing 100 IU/mL penicillin, 100 ug/mL streptomycin. Following the pretreatment 2′,3′-O-(4-benzoylbenzoyl)-adenosine 5′-triphosphate (Sigma Aldrich Cat# B6396) is added to a final concentration of 250 uM and the cells incubated for an additional 45 minutes. 30 uL of cell supernatant is then collected and IL-1β levels determined via ELISA (R&D systems Cat. # HSLB50) according to manufacturers recommendations using the Tecan Safire plate reader. Background adjusted IL-1β levels of drug treated and non-treated cells are used to calculate the percent inhibition.

[1] = 0.3 μM compound (asterisk symbols)
[2] = 0.3 μM compound (symbols * to ****)
[3] = 0.1 μM compound (symbols + to ++++)

Row | SMILES | inhibition at 0.3 µM [1] | inhibition at 0.3 µM [2] | also measured
1 | O=S(=O)(c1ccccc1F)N1CCc2c(ncnc2NCC23CC4CC(CC(C4)C2)C3)C1 [Compound 24] |  |  | inhibition at 0.1 µM (0.1 μM compound (plus symbols)): > 75%
2 | FC(F)(F)Oc1ccc(CN2CCc3c(ncnc3NCC34CC5CC(CC(C5)C3)C4)C2)cc1 [Compound 231] |  | 0 to 25% | 
3 | O=C(c1c(Cl)cccc1Cl)N1CCc2c(ncnc2NCC23CC4CC(CC(C4)C2)C3)C1 [Compound 75] |  |  | inhibition at 0.1 µM (0.1 μM compound (plus symbols)): > 75%
4 | O=C(C1CCOC1)N1CCc2c(ncnc2NCC23CC4CC(CC(C4)C2)C3)C1 (stereo not drawn) [Compound 249, {4-[(Adamantan-1-ylmethyl)-amino]-5,8-dihydro-6H-pyrido[3,4-d]pyrimidin-7-yl}-(tetrahydro-furan-3-yl)-methanone] |  |  | inhibition at 0.1 µM [3]: 0 to 25%
5 | COc1ccc(CN(C)CC(=O)N2CCc3c(ncnc3NCC3C4CC5CC(C4)CC3C5)C2)cc1 (stereo not drawn) [Compound 316] |  | 25 to 50% | 
6 | CS(=O)(=O)N1CCc2c(ncnc2NCC23CC4CC(CC(C4)C2)C3)C1 [Compound 3] | 25 to 50% |  | 
7 | O=S(=O)(c1cc(Cl)ccc1F)N1CCc2c(ncnc2NCC23CC4CC(CC(C4)C2)C3)C1 [Compound 62] | 25 to 50% |  | 
8 | O=S(=O)(c1ccc(Cl)cc1)N1CCc2c(ncnc2NCC23CC4CC(CC(C4)C2)C3)C1 [Compound 11] | 0 to 25% |  | 
9 | COc1ccc(CN2CCc3c(ncnc3NCC34CC5CC(CC(C5)C3)C4)C2)cc1OCc1ccccc1 [Compound 203] |  | 0 to 25% | 
10 | O=S(=O)(c1ccc(Oc2ccncc2)cc1)N1CCc2c(ncnc2NCC23CC4CC(CC(C4)C2)C3)C1 [Compound 31] | 25 to 50% |  | 
11 | CC(C)(C)OC(=O)N[C@@H](Cc1ccccc1)C(=O)N1CCc2c(ncnc2NCC(O)C23CC4CC(CC(C4)C2)C3)C1 (stereo partly drawn) [Compound 709, {(S)-2-[4-(2-Adamantan-1-yl-2-hydroxy-ethylamino)-5,8-dihydro-6H-pyrido[3,4-d]pyrimidin-7-yl]-1-benzyl-2-oxo-ethyl}-carbamic acid tert-butyl ester] |  |  | inhibition at 0.03 µM (at 0.03 μM (asterisk symbols), read-out: IL-1β % inhib @ 0.3 μM or @ 0.03 μM): 0 to 25%
12 | O=S(=O)(Cc1ccc(F)cc1)N1CCc2c(ncnc2NCC23CC4CC(CC(C4)C2)C3)C1 [Compound 40] | 0 to 25% |  | 
13 | Fc1ccc(COc2ccc(CN3CCc4c(ncnc4NCC45CC6CC(CC(C6)C4)C5)C3)cc2)cc1 [Compound 233] |  | 0 to 25% | 
14 | O=C(OCc1ccc(F)cc1F)N1CCc2c(ncnc2NCC23CC4CC(CC(C4)C2)C3)C1 [Compound 325] |  |  | inhibition at 0.1 µM [3]: > 75%
15 | CN(C)CCN1CCN(CC(=O)N2CCc3c(ncnc3NCC34CC5CC(CC(C5)C3)C4)C2)CC1 [Compound 258] |  | 0 to 25% | 
16 | Cc1nn(-c2ccccc2)nc1COC(=O)N1CCc2c(ncnc2NCC23CC4CC(CC(C4)C2)C3)C1 [Compound 345] |  |  | inhibition at 0.1 µM [3]: 25 to 50%
17 | O=C(CN1CCc2ccccc2C1)N1CCc2c(ncnc2NCC2C3CC4CC(C3)CC2C4)C1 (stereo not drawn) [Compound 274] |  | 25 to 50% | 
18 | c1cc(CN2CCc3c(ncnc3NCC34CC5CC(CC(C5)C3)C4)C2)ccn1 [Compound 221] |  | > 75% | 
19 | O=C(COc1ccccc1)N1CCc2c(ncnc2NCC23CC4CC(CC(C4)C2)C3)C1 [Compound 104] |  |  | inhibition at 0.1 µM (0.1 μM compound (plus symbols)): 50 to 75%
20 | O=C(OCc1ccccc1Cl)N1CCc2c(ncnc2NCC23CC4CC(CC(C4)C2)C3)C1 [Compound 339] |  |  | inhibition at 0.1 µM [3]: > 75%
21 | C[C@@H](c1ccccc1)N(C)CC(=O)N1CCc2c(ncnc2NCC2C3CC4CC(C3)CC2C4)C1 (stereo partly drawn) [Compound 315] |  | > 75% | 

Row | SMILES | inhibition at 0.3 µM [1] | inhibition at 0.3 µM [2] | also measured
22 | Fc1cccc(CN2CCc3c(ncnc3NCC34CC5CC(CC(C5)C3)C4)C2)c1 [Compound 216] |  | > 75% | 
23 | O=C(c1ccccc1F)N1CCc2c(ncnc2NCC23CC4CC(CC(C4)C2)C3)C1 [Compound 135] |  |  | inhibition at 0.1 µM (0.1 μM compound (plus symbols)): 50 to 75%
24 | c1nc2c(c(NCC34CC5CC(CC(C5)C3)C4)n1)CCN(CC1CCCCC1)C2 [Compound 167] | > 75% |  | 
25 | CC(=O)N1CCC(C(=O)N2CCc3c(ncnc3NCC34CC5CC(CC(C5)C3)C4)C2)CC1 [Compound 148] | 0 to 25% |  | 
26 | O=C(CN1CCC(c2ccccc2)CC1)N1CCc2c(ncnc2NCC2C3CC4CC(C3)CC2C4)C1 (stereo not drawn) [Compound 294] |  | 0 to 25% | 
27 | Cc1ccc(CN(C)CC(=O)N2CCc3c(ncnc3NCC3C4CC5CC(C4)CC3C5)C2)cc1 (stereo not drawn) [Compound 318] |  | 25 to 50% | 
28 | O=S(=O)(c1ccc(F)cc1)N1CCc2c(ncnc2NCC23CC4CC(CC(C4)C2)C3)C1 [Compound 13] | 25 to 50% |  | 
29 | O=S(=O)(c1c(Cl)cccc1Cl)N1CCc2c(ncnc2NCC23CC4CC(CC(C4)C2)C3)C1 [Compound 67] | > 75% |  | 
30 | O=S(=O)(c1cc(Cl)cc(Cl)c1)N1CCc2c(ncnc2NCC23CC4CC(CC(C4)C2)C3)C1 [Compound 65] | 0 to 25% |  | 
31 | CN(CCc1ccccc1)CC(=O)N1CCc2c(ncnc2NCC2C3CC4CC(C3)CC2C4)C1 (stereo not drawn) [Compound 284] |  | > 75% | 
32 | O=C(CN1CCN(CC(=O)N2CCc3c(ncnc3NCC34CC5CC(CC(C5)C3)C4)C2)CC1)N1CCOCC1 [Compound 267] |  | 0 to 25% | 
33 | Cc1nn(C)c(C)c1S(=O)(=O)N1CCc2c(ncnc2NCC23CC4CC(CC(C4)C2)C3)C1 [Compound 54] | 0 to 25% |  | 
34 | Clc1ccc(CN2CCc3c(ncnc3NCC34CC5CC(CC(C5)C3)C4)C2)cc1Cl [Compound 201] |  | 0 to 25% | 
35 | O=C(OCc1cscn1)N1CCc2c(ncnc2NCC23CC4CC(CC(C4)C2)C3)C1 [Compound 331] |  |  | inhibition at 0.1 µM [3]: 0 to 25%
36 | CC(C)[C@H](NC(=O)OC(C)(C)C)C(=O)N1CCc2c(ncnc2NCC23CC4CC(CC(C4)C2)C3)C1 [Compound 351] |  |  | inhibition at 0.1 µM [3]: > 75%
37 | O=C(CN1CCN(CCn2cccc2)CC1)N1CCc2c(ncnc2NCC2C3CC4CC(C3)CC2C4)C1 (stereo not drawn) [Compound 303] |  | 25 to 50% | 
38 | O=S(=O)(c1ccc(F)c(Cl)c1)N1CCc2c(ncnc2NCC23CC4CC(CC(C4)C2)C3)C1 [Compound 49] | 50 to 75% |  | 
39 | CCN(CC(=O)N1CCc2c(ncnc2NCC2C3CC4CC(C3)CC2C4)C1)Cc1ccncc1 (stereo not drawn) [Compound 268] |  | 50 to 75% | 
40 | COc1cccc(CN(C)CC(=O)N2CCc3c(ncnc3NCC3C4CC5CC(C4)CC3C5)C2)c1 (stereo not drawn) [Compound 308] |  | 0 to 25% | 
41 | FC(F)(F)c1ccc(CN2CCc3c(ncnc3NCC34CC5CC(CC(C5)C3)C4)C2)cc1 [Compound 215] |  | 0 to 25% | 
42 | Cc1cc(C)cc(S(=O)(=O)N2CCc3c(ncnc3NCC34CC5CC(CC(C5)C3)C4)C2)c1 [Compound 73] | 0 to 25% |  | 

More lines, main results first:

Row | inhibition at 0.3 µM [1] | inhibition at 0.3 µM [2] | SMILES | also measured
43 | > 75% |  | COc1ccc(CC(=O)N2CCc3c(ncnc3NCC34CC5CC(CC(C5)C3)C4)C2)cc1 [Compound 80] | 
44 | 0 to 25% |  | O=C(c1cc(C(F)(F)F)ccc1Cl)N1CCc2c(ncnc2NCC23CC4CC(CC(C4)C2)C3)C1 [Compound 126] | 
45 | 25 to 50% |  | O=C(c1ccc(Cl)c(Cl)c1)N1CCc2c(ncnc2NCC23CC4CC(CC(C4)C2)C3)C1 [Compound 100] | 
46 | > 75% |  | O=C(c1ccc(F)c(F)c1)N1CCc2c(ncnc2NCC23CC4CC(CC(C4)C2)C3)C1 [Compound 88] | 
47 | 50 to 75% |  | O=C(c1c(F)cccc1F)N1CCc2c(ncnc2NCC23CC4CC(CC(C4)C2)C3)C1 [Compound 102] | 
48 | > 75% |  | O=S(=O)(Cc1ccccc1)N1CCc2c(ncnc2NCC23CC4CC(CC(C4)C2)C3)C1 [Compound 14] | 
49 | 25 to 50% |  | O=C(c1ccc(C(F)(F)F)cc1)N1CCc2c(ncnc2NCC23CC4CC(CC(C4)C2)C3)C1 [Compound 98] | 
50 | > 75% |  | COc1cccc(CN2CCc3c(ncnc3NCC34CC5CC(CC(C5)C3)C4)C2)c1 [Compound 195] | 
51 |  | > 75% | Cc1cccc(CN2CCc3c(ncnc3NCC34CC5CC(CC(C5)C3)C4)C2)c1 [Compound 217] | 
52 | 50 to 75% |  | Cc1ccc(S(=O)(=O)N2CCc3c(ncnc3NCC34CC5CC(CC(C5)C3)C4)C2)cc1 [Compound 5] | 
53 | 0 to 25% |  | O=C(c1ccc(OC(F)(F)F)cc1)N1CCc2c(ncnc2NCC23CC4CC(CC(C4)C2)C3)C1 [Compound 84] | 
54 | > 75% |  | O=C(c1cccnc1Oc1ccccc1)N1CCc2c(ncnc2NCC23CC4CC(CC(C4)C2)C3)C1 [Compound 129] | 
